Assay results reported in patent US6673938B1, “Substituted pyridine herbicides” (Syngenta Participations AG, priority 1998, dated 2004).
Where “and” joins values, the source holds several entries; their conditions need not be identical. Identical values can stand only once.

How the values were obtained:
[1] = test system: Monocotyledonous and dicotyledonous test plants; test: Herbicidal action before emergence of the plants (pre-emergence action); type: in vivo; conditions: evaluated after 3 weeks, nine-step scale; for pre-emergence action, Cyperus / pre-emergence action, Ipomoea / pre-emergence action, Setaria / pre-emergence action, Sinapis / pre-emergence action, Solanum / pre-emergence action, Stellaria: 2000 g/ha
Outline: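 Sprayed onto soil immediately after sowing as WP suspension or EC emulsion at 2 kg or 250 g a.i./ha (500 l water/ha). Greenhouse growth for 3 weeks, then scored on a nine-step scale (1 = complete damage, 9 = no effect).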

[2] = test system: Monocotyledonous and dicotyledonous test plants; test: Post-emergence herbicidal action; type: in vivo; conditions: evaluated after approximately 18 days; for Post-emergence action, Ipomoea / Post-emergence action, Lolium / Post-emergence action, Setaria / Post-emergence action, Sinapis / Post-emergence action, Solanum / Post-emergence action, Stellaria: 2000 g/ha, sprayed in 4- to 6-leaf stage, nine-step scale
Outline: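 Scoring uses a 1–9 scale (1 complete damage, 9 no effect), read roughly 18 days post-application. Compounds were applied post-emergence at 4–6 leaves, as aqueous suspension (25% wettable powder) or emulsion (25% emulsion concentrate), at 250 g or 2 kg a.i./ha in 500 l water/ha.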

Compound | pre-emergence action, Cyperus [1] | pre-emergence action, Ipomoea [1] | pre-emergence action, Setaria [1] | pre-emergence action, Sinapis [1] | pre-emergence action, Solanum [1] | pre-emergence action, Stellaria [1] | Post-emergence action, Ipomoea [2] | Post-emergence action, Lolium [2] | Post-emergence action, Setaria [2] | Post-emergence action, Sinapis [2] | Post-emergence action, Solanum [2] | Post-emergence action, Stellaria [2] | further results
Cc1cc(C(=O)C2=C(O)C(C)(C)CCC2=O)c(C)nc1C(F)(F)F [Compound A184-B24] | 1 | 3 | 2 | 2 | 1 | 2 | 1 | 2 | 2 | 1 | 2 | 2 | 
COC1CC(C)C(=O)C(C(=O)c2ccc(C(F)(F)F)nc2C)=C1O (stereo not drawn) [Compound A2-B1070, 3-Hydroxy-4-methoxy-6-methyl-2-(2-methyl-6-trifluoromethyl-pyridine-3-carbonyl)cyclohex-2-enone] | 2 | 3 | 3 | 2 | 2 | 2 | 2 | 4 | 2 | 2 | 2 | 2 | 
Cc1nc(C(F)(F)F)ccc1C(=O)C1=C(O)CC2CCCC2C1=O (stereo not drawn) [Compound A2-D36] | 1 | 2 | 2 and 1 | 2 |  | 1 | 2 | 2 and 1 | 2 and 1 | 1 | 2 and 1 | 2 and 1 | 
COCc1nc(C(F)(F)F)ccc1C(=O)C1=C(O)C(C)CCC1=O (stereo not drawn) [Compound A8-B2] | 1 | 3 | 2 | 2 | 1 | 2 | 2 | 2 | 2 | 2 | 2 | 3 | 
Cc1nc(C(F)(F)F)ccc1C(=O)C1=C(O)CC(C)(C)CC1=O [Compound A2-B1063] | 1 | 2 | 1 | 2 | 1 | 2 | 2 | 2 | 4 | 1 | 2 | 2 | 
Cc1nc(C(F)(F)F)ccc1C(=O)C1=C(O)CC(C(C)C)CC1=O (stereo not drawn) [Compound A2-B1061] | 3 | 3 | 2 | 2 | 1 | 2 | 2 | 2 | 2 | 1 | 2 | 2 | 
COC1CCC(=O)C(C(=O)c2ccc(C(F)(F)F)nc2C)=C1O (stereo not drawn) [Compound A2-B1068] | 2 | 2 | 2 | 2 | 1 | 2 | 1 | 2 | 4 | 1 | 1 | 2 | 
Cc1nc(C(F)(F)F)ccc1C(=O)C1=C(O)C(C)(C)CC(C)C1=O (stereo not drawn) [Compound A2-B68] | 1 | 2 | 1 | 2 | 1 | 2 | 1 | 2 | 2 | 1 | 1 | 2 | 
Cc1nc(C(F)(F)C(F)(F)F)ccc1C(=O)C1=C(O)CCCC1=O [Compound A34-B1] | 1 | 2 | 2 | 2 | 2 | 3 | 1 | 2 | 2 | 1 | 1 | 2 | 
Cc1nc(C(F)(F)F)ccc1C(=O)C1=C(O)C(C)(C)CC2(CCC2)C1=O [Compound A2-C147] | 2 | 4 | 2 | 2 | 2 | 2 | 1 | 2 | 2 | 1 | 2 | 2 | 
Cc1nc(C(F)(F)F)ccc1C(=O)C1=C(O)C(C)(C)OC(C)(C)C1=O [Compound A2-B618] | 1 | 1 | 1 | 2 | 1 | 1 | 2 | 2 | 2 | 1 | 2 | 2 | 
Cc1nc(C(F)(F)F)ccc1C(=O)C1=C(O)C(C)C(C)CC1=O (stereo not drawn) [Compound A2-B134] | 1 | 2 | 1 | 2 | 1 | 1 | 2 | 2 | 1 | 1 | 1 | 2 | 
COCc1nc(C(F)(F)F)ccc1C(=O)C1=C(O)CCCC1=O [Compound A8-B1] |  |  |  |  |  |  |  |  |  |  |  |  | Pre-emergence action, Abutilon ([1]; Abutilon, 250 g/ha): 1; Pre-emergence action, Amaranthus ([1]; Amaranthus, 250 g/ha): 1; Pre-emergence action, Chenop. ([1]; Chenop., 250 g/ha): 1; Pre-emergence action, Digitaria ([1]; Digitaria, 250 g/ha): 2; Pre-emergence action, Echino. ([1]; Echino., 250 g/ha): 2; Pre-emergence action, Panicum ([1]; Panicum, 250 g/ha): 2; Post-emergence action: Abutilon (score, nine-step scale) ([2]; Abutilon, 250 g/ha, sprayed at 4- to 6-leaf stage): 3; Post-emergence action: Chenop. (score, nine-step scale) ([2]; Chenop., 250 g/ha, sprayed at 4- to 6-leaf stage): 2; Post-emergence action: Digitaria (score, nine-step scale) ([2]; Digitaria, 250 g/ha, sprayed at 4- to 6-leaf stage): 3; Post-emergence action: Echino. (score, nine-step scale) ([2]; Echino., 250 g/ha, sprayed at 4- to 6-leaf stage): 3; Post-emergence action: Ipopur. (score, nine-step scale) ([2]; Ipopur., 250 g/ha, sprayed at 4- to 6-leaf stage): 3; Post-emergence action: Panicum (score, nine-step scale) ([2]; Panicum, 250 g/ha, sprayed at 4- to 6-leaf stage): 4; Post-emergence action: Xanth. (score, nine-step scale) ([2]; Xanth., 250 g/ha, sprayed at 4- to 6-leaf stage): 3
CCc1nc(C(F)(F)F)ccc1C(=O)C1=C(O)C(C)(C)CCC1=O [Compound A3-B24] | 1 | 3 | 2 | 2 | 1 | 2 | 2 | 2 | 2 | 1 | 2 | 2 | 
CC1(C)CCC(=O)C(C(=O)c2ccc(C(F)(F)F)nc2C(F)F)=C1O [Compound A18-B24] | 1 | 1 | 1 | 1 | 1 | 2 | 1 | 2 | 2 | 1 | 2 | 2 | 
